In PubChem BioAssay AID1963438 (Molecular Pharmacology Branch, DTP, NCI, 2024):
Several values for one entry are separate records, joined by “and”; a condition that tells them apart may be missing. Equal values may be shown once.

Tested on: NCI-H510 multicellular tumor spheroid growth, % test/control
Test: Anticancer human tumor NCI-H510 cell line growth inhibition [Asc];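 also: spheroids exposed to agents for 7 days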;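 as to viability, T/C: 100% = DMSO vehicle control wells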
Settings: for viability, T/C: stronger effect = lower value
Summary of the method: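 Tumor cells were grown as complex spheroids with human endothelial cells (HUVEC) and human mesenchymal stem cells as stroma. Agents were tested alone and in combination, in half-log steps down from the clinical Cmax, or from 10 microM where Cmax was unknown.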

[1] = curve of first compound, second compound 0.1 µM
[2] = curve of first compound, second compound 0.316 µM
[3] = curve of first compound, second compound 1 µM
[4] = second compound 0.1 µM, first compound 0.0316 µM
[5] = second compound 0.1 µM, first compound 0.1 µM
[6] = second compound 0.1 µM, first compound 0.316 µM
[7] = second compound 0.1 µM, first compound 1 µM
[8] = second compound 0.316 µM, first compound 0.0316 µM
[9] = second compound 0.316 µM, first compound 0.1 µM
[10] = second compound 0.316 µM, first compound 0.316 µM
[11] = second compound 0.316 µM, first compound 1 µM
[12] = second compound 1 µM, first compound 0.0316 µM
[13] = second compound 1 µM, first compound 0.1 µM
[14] = second compound 1 µM, first compound 0.316 µM
[15] = second compound 1 µM, first compound 1 µM

`C#Cc1c(F)ccc2cc(O)cc(-c3ncc4c(N5CC6CCC(C5)N6)nc(OCC56CCCN5CC(F)C6)nc4c3F)c12` (stereo not given) was tested, and the viability, T/C (compound 0.0316 µM) was 111% and 93.4% and 94.4%, the viability, T/C (compound 0.1 µM) was 104% and 103% and 112% and the viability, T/C (compound 0.316 µM) was 99.3% and 99.1% and 92.8%. The viability, T/C (compound 1 µM) was 94.8% and 105% and 84.2%, the viability, T/C (compound 3.16 µM) was 106% and 112% and 123% and the viability, T/C (compound 10 µM) was 99.8% and 88.4% and 92.8%. The IC50 (curve of compound) was > 10000 nM.

In the case of `COc1c(OCCCN2CCOCC2)ccc2c3n(c(=NC(=O)c4cnc(N)nc4)nc12)CCN3` + Cc1c(S(C)(=O)=O)c(-c2cc(F)cc(N3CCN(c4ccc(NS(=O)(=O)c5ccc(NC(CCN6CCC(C(=O)OCCCP(=O)(O)O)CC6)CSc6ccccc6)c(S(=O)(=O)C(F)(F)F)c5)cc4)CC3)c2)c(-c2ccc(Cl)cc2)n1C(C)C, the IC50 [1] is reported as > 1000 nM, the IC50 [2] is reported as > 1000 nM and the IC50 [3] is reported as > 1000 nM. The IC50 (curve of first compound, second compound 3.16 µM) was > 1000 nM, the IC50 (curve of first compound, second compound 10 µM) was 231 nM and the viability, T/C (second compound 0.1 µM, first compound 0.00316 µM) was 112%. The viability, T/C (second compound 0.1 µM, first compound 0.01 µM) was 106%, the viability, T/C [4] was 88.9% and the viability, T/C [5] was 89.3%. It also gave a viability, T/C [6] of 96.4%, a viability, T/C [7] of 84.3% and a viability, T/C (second compound 0.316 µM, first compound 0.00316 µM) of 102%. The viability, T/C (second compound 0.316 µM, first compound 0.01 µM) was 99.6%, the viability, T/C [8] was 70.3% and the viability, T/C [9] was 75%. It also gave a viability, T/C [10] of 89.1%, a viability, T/C [11] of 53.6% and a viability, T/C (second compound 1 µM, first compound 0.00316 µM) of 99.8%. The viability, T/C (second compound 1 µM, first compound 0.01 µM) was 98.1%, the viability, T/C [12] was 106% and the viability, T/C [13] was 91.2%. It also gave a viability, T/C [14] of 67.5%, a viability, T/C [15] of 86.1% and a viability, T/C (second compound 3.16 µM, first compound 0.00316 µM) of 89.4%. The viability, T/C (second compound 3.16 µM, first compound 0.01 µM) was 91.6%, the viability, T/C (second compound 3.16 µM, first compound 0.0316 µM) was 82.6% and the viability, T/C (second compound 3.16 µM, first compound 0.1 µM) was 80%. It also gave a viability, T/C (second compound 3.16 µM, first compound 0.316 µM) of 82.6%, a viability, T/C (second compound 3.16 µM, first compound 1 µM) of 63.8% and a viability, T/C (second compound 10 µM, first compound 0.00316 µM) of 66%. For the same compound, the viability, T/C (second compound 10 µM, first compound 0.01 µM) was 98.4%, the viability, T/C (second compound 10 µM, first compound 0.0316 µM) was 70.9% and the viability, T/C (second compound 10 µM, first compound 0.1 µM) was 96.3%. It also gave a viability, T/C (second compound 10 µM, first compound 0.316 µM) of 37.6% and a viability, T/C (second compound 10 µM, first compound 1 µM) of 32.2%.

`CCN1C(C(=O)NC23CCC(C(=O)O)(CC2)CC3)C(c2cccc(Cl)c2F)C2(C(=O)Nc3cc(Cl)ccc32)C12CCCCC2` (stereo not given) was tested, and the viability, T/C (compound 0.00949 µM) was 103% and 92.8%, the IC50 (compound alone, run of 10/11/2022) was > 3000 nM and the IC50 (curve of compound) was > 3000 nM.

For `C=C(F)C(=O)N1CCN(c2nc(OCC3CCCN3C)nc3c2CCN(c2cccc4cccc(Cl)c24)C3)CC1CC#N` (stereo not given) + CNC(C)C(=O)NC1CN(S(=O)(=O)c2cccc(S(=O)(=O)N3CCC4CCC(C(=O)NC(c5ccccc5)c5ccccc5)N4C(=O)C(NC(=O)C(C)NC)C3)c2)CCC2CCC(C(=O)NC(c3ccccc3)c3ccccc3)N2C1=O, the IC50 (curve of first compound, second compound 0.01 µM) was 1960 nM, the IC50 (curve of first compound, second compound 0.0316 µM) was 1860 nM and the IC50 [1] was 1750 nM. The IC50 [2] was 1700 nM, the IC50 [3] was 1830 nM and the viability, T/C (second compound 0.01 µM, first compound 0.0316 µM) was 125%. It also gave a viability, T/C (second compound 0.01 µM, first compound 0.1 µM) of 117%, a viability, T/C (second compound 0.01 µM, first compound 0.316 µM) of 108% and a viability, T/C (second compound 0.01 µM, first compound 1 µM) of 116%. For the same compound, the viability, T/C (second compound 0.01 µM, first compound 3.16 µM) was 2.75%, the viability, T/C (second compound 0.01 µM, first compound 10 µM) was 0.14% and the viability, T/C (second compound 0.0316 µM, first compound 0.0316 µM) was 115%. It also gave a viability, T/C (second compound 0.0316 µM, first compound 0.1 µM) of 101%, a viability, T/C (second compound 0.0316 µM, first compound 0.316 µM) of 104% and a viability, T/C (second compound 0.0316 µM, first compound 1 µM) of 108%. For the same compound, the viability, T/C (second compound 0.0316 µM, first compound 3.16 µM) was 1.63%, the viability, T/C (second compound 0.0316 µM, first compound 10 µM) was 0.13% and the viability, T/C [4] was 102%. The viability, T/C [5] was 119%, the viability, T/C [6] was 110% and the viability, T/C [7] was 96.4%. For the same compound, the viability, T/C (second compound 0.1 µM, first compound 3.16 µM) was 1.1%, the viability, T/C (second compound 0.1 µM, first compound 10 µM) was 0.14% and the viability, T/C [8] was 97.4%. It also gave a viability, T/C [9] of 124%, a viability, T/C [10] of 115% and a viability, T/C [11] of 89.4%. For the same compound, the viability, T/C (second compound 0.316 µM, first compound 3.16 µM) was 4.39%, the viability, T/C (second compound 0.316 µM, first compound 10 µM) was 0.13% and the viability, T/C [12] was 115%. The viability, T/C [13] was 105%, the viability, T/C [14] was 108% and the viability, T/C [15] was 104%. It also gave a viability, T/C (second compound 1 µM, first compound 3.16 µM) of 0.85% and a viability, T/C (second compound 1 µM, first compound 10 µM) of 0.22%.
